The record followed here is ChEMBL document CHEMBL1811778, “The discovery and development of inhibitors of fatty acid amide hydrolase (FAAH)” (Bioorg Med Chem Lett, 2011).

Molecules are shown by their SMILES.

For one assay, the target named is T1, Fatty-acid amide hydrolase 1 (Rattus norvegicus, UniProt P97612).
T1 sequence (P97612 whole entry): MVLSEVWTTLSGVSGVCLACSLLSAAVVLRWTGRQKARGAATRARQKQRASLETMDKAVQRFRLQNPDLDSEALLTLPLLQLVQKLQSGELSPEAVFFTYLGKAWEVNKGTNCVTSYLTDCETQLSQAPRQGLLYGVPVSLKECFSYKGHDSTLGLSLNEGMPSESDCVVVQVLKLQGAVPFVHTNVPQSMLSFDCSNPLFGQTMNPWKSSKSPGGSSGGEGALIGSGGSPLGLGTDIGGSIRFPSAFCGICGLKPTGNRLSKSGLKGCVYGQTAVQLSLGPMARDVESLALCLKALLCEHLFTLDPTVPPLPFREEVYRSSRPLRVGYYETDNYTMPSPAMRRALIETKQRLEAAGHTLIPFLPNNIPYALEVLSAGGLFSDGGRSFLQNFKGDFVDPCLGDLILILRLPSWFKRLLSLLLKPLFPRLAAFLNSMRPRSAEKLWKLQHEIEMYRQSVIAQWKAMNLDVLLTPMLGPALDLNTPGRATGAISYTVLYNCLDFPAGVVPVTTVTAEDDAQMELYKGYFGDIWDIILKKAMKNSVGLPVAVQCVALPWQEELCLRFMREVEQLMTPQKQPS
Briefly: Inhibition of rat FAAH assessed as conversion [14]C-oleamide to oleic acid.
Conditions: not given
Usually Ki stands for the dissociation constant of the complex between target and ligand, obtained from inhibition or displacement. `CCCCCCCC/C=C\CCCCCCCC(=O)C1=NCCO1`: the Ki was found to be 4500 nM.

On to `CCCCCCCC/C=C\CCCCCCCC(=O)c1nc2cccnc2o1`, for which the Ki was 11 nM. `CCCCCCCC/C=C\CCCCCCCC(=O)c1nccn1C`: the Ki was more than 100000 nM. As for `CCCCCCCC/C=C\CCCCCCCC(=O)c1nc2cnccc2o1`, the Ki was determined as 7.2 nM.

The subject of a further assay is Rattus norvegicus. As to the kind of experiment: In vivo inhibition of rat FAAH at 0.3 mg/kg, ip after 16 hrs. It is filed as functional. As to conditions: route intraperitoneal.
The term inhibition in vivo denotes how much of the control response was suppressed. A high value points to strong suppression. For the compound `NC(=O)c1cccc(-c2cccc(OC(=O)NC3CCCCC3)c2)c1` [URB-597], the inhibition in vivo at 0.3 mg/kg came to 70%.

The target in another assay is T2, Fatty-acid amide hydrolase 1 (Homo sapiens, UniProt O00519).
T2 sequence (O00519 whole entry): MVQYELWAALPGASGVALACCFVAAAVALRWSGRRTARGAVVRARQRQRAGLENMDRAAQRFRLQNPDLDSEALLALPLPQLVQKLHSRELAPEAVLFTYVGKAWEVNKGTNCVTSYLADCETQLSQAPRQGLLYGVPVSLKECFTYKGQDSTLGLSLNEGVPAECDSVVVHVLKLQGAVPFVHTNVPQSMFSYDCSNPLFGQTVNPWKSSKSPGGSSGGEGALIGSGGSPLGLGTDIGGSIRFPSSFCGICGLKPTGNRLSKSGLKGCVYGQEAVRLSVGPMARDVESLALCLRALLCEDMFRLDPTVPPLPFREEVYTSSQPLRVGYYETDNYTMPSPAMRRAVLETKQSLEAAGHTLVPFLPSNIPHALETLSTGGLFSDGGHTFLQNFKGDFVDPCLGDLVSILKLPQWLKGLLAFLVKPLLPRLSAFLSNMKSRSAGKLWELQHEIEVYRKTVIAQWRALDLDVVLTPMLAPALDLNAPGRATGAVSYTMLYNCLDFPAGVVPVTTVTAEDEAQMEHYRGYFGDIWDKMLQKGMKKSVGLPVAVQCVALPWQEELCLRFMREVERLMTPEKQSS
As to the kind of experiment: Inhibition of FAAH.
Conditions: not given
`CCCCCCCCCCCC(=O)c1nc2ncccc2o1` registered a Ki of 0.57 nM. As usually defined, the IC50 is the concentration that gives 50% inhibition. Regarding `O=C(N1CCC(Oc2ccc(OCc3cccc(F)c3)cc2)CC1)n1ccnc1`, it took 0.093 nM to reach half-maximal inhibition (IC50). As to `O=C(CCCCCCc1ccccc1)c1ncc(-c2cnccn2)o1`, the Ki worked out at 5.3 nM. As to `O=C(CCCCCCc1ccccc1)c1ncc(-c2cscn2)o1`, the Ki was 5.8 nM.

Take `CCCCCCCCCCCCCCCCCC(=O)c1nc2ncccc2o1`: the affinity corresponds to a Ki of 11 nM. For `COc1ccc(N2CCN(C(=O)n3nnc4ccc(N5CCCC5)nc43)CC2)cc1`, 1 nM corresponded to half-maximal inhibition (IC50). `CC(=O)c1nc2ncccc2o1` displayed a Ki of more than 100000 nM. `CN(CCCCCl)C(=O)n1cnc(-c2ccccc2)c1` displayed an IC50 of 78 nM. With `O=C(N1CCN(c2cccc(C(F)(F)F)c2)CC1)n1nnc2ccc(-c3ccc(Cl)cc3)nc21`, 2 nM corresponded to half-maximal inhibition (IC50).

Compound `O=C(CCCCCCc1ccccc1)c1ncc(-c2cocn2)o1` registered a Ki of 4.6 nM. As for `Cc1ccc2nc(-c3ccc(NC(=O)C4CCN(S(=O)(=O)c5cccs5)CC4)cc3)sc2c1`, the half-inhibitory concentration (IC50) was found to be 18 nM. This lies in the double-digit nanomolar range. `CCCCCCCCCC(=O)c1nc2ncccc2o1` returned a Ki of 0.75 nM. For the compound `CCCCCCCCCCCCCC(=O)c1nc2ncccc2o1`, the Ki was determined as 1.7 nM.

`CCCCCC(=O)c1nc2ncccc2o1` came in with a Ki of 15 nM.

For `CCCCCCCC/C=C\CCCCCCC(=O)C(N)=O`, the Ki was 16 nM.

Consider `CCCCCCCCCCCCCCCC(=O)c1nc2ncccc2o1`, for which the Ki stood at 1.9 nM.

With `CCCCCCCC/C=C\CCCCCCC=O`, affinity was put at a Ki of 40 nM.

In the case of `O=C(CCCCCCc1ccccc1)c1ncc(-c2ncccn2)o1`, the Ki was determined as 4.6 nM. `CCCCCCC(=O)c1nc2ncccc2o1`: the affinity, expressed as Ki, was 2.1 nM.

Compound `CCCCCCCC/C=C\CCCCCCC(=O)C(F)(F)F` showed a Ki of 2 nM.

Turning to `O=C(CCCCCCc1ccccc1)c1ncc(-c2cccnn2)o1`, the Ki came to 5.6 nM. Same read-out and setting: then `CCCCCCCC/C=C\CCCCCCC(=O)C(=O)OCC`, with 1.4 nM; and `CCCCC(=O)c1nc2ncccc2o1`, with 50 nM; and `CCCCCCCC(=O)c1nc2ncccc2o1`, with 0.69 nM.

A further assay has as its target T2, Fatty-acid amide hydrolase 1. As to the kind of experiment: Reversible inhibition of human FAAH.
Conditions: not given
On to `CCn1ccc2cc(-c3ccc4oc(N5Cc6ccccc6C5)nc4c3)ccc21`, for which 1.3 nM corresponded to half-maximal inhibition (IC50). For the compound `CCn1c(=O)n(C2CCCN(c3nccc(-c4cc5ccccc5o4)n3)C2)c2ccccc21` (configuration not stated), the IC50 turned out to be 10 nM. `CCN(CC)S(=O)(=O)N1CCc2c(ccnc2Nc2cnc3ccccc3c2)C1` yielded an IC50 of less than 100 nM.
